Where two headings read alike, the source gives them in different places.
Target: T1, human mGlu2 receptor (Homo sapiens, UniProt Q14416)
T1 construct: expressed in transfected cells; host or cells: CHO cells
Assay: [35S]GTPγS binding assay, mGluR2 PAM
Type: biochemical
Conditions: for EC50 / GTPγS-hmGluR2 PAM pEC50: in presence of EC20 glutamate; for EC50: read-out: GTPγS-hmGluR2 PAM pEC50 (converted); for Emax / GTPγS-hmGluR2 PAM Emax: EC20 glutamate
Method: The [^35S]GTPγS binding assay is a functional membrane-based assay used to study G-protein coupled receptor (GPCR) function whereby incorporation of a non-hydrolysable form of GTP, [^35S]GTPγS (guanosine 5′-triphosphate, labelled with […] ^35S), is measured.
Cells were then collected by scraping in PBS and cell suspension was centrifuged (10 min at 4000 RPM in benchtop centrifuge). Supernatant was discarded and pellet gently resuspended in 50 mM Tris-HCl, pH 7.4 by mixing with a vortex and pipetting up and down. The suspension was centrifuged at 16,000 RPM (Sorvall RC-5C plus rotor SS-34) for 10 minutes and the supernatant discarded. The pellet was homogenized in 5 mM Tris-HCl, pH 7.4 using an ultra-turrax homogenizer and centrifuged again (18,000 RPM, 20 min, 4° C.). The final pellet was resuspended in 50 mM Tris-HCl, pH 7.4 and stored at-80° C. in appropriate aliquots before use. Protein concentration was determined by the Bradford method (Bio-Rad, USA) with bovine serum albumin as standard.
Measurement of mGluR2 positive allosteric modulatory activity of test compounds was performed as follows. Test compounds and glutamate were diluted in assay buffer containing 10 mM HEPES acid, 10 mM HEPES salt, pH 7.4, 100 mM NaCl, 3 mM MgCl2 and 10 μM GDP. Human mGlu2 receptor-containing membranes were thawed on ice and diluted in assay buffer supplemented with 14 μg/ml saponin. Membranes were pre-incubated with compound alone or together with a predefined (˜EC20) concentration of glutamate (PAM assay) for 30 min at 30° C. After addition of [^35S] GTPγS (f.c. 0.1 nM), assay mixtures were shaken briefly and further incubated to allow [^35S] GTPγS incorporation on activation (30 minutes, 30° C.). Final assay mixtures contained 7 μg of membrane protein in 10 mM HEPES acid, 10 mM HEPES salt, pH 7.4, 100 mM NaCl, 3 mM MgCl2, 10 µM GDP and 2 μg/ml saponin. Total reaction volume was 200 μl. Reactions were terminated by rapid filtration through Unifilter-96 GF/B plates (Perkin Elmer, Massachusetts, USA) using a 96-well filtermate universal harvester. Filters were washed 6 times with ice-cold 10 mM NaH2PO4/10 mM Na2HPO4, pH 7.4. Filters were then air-dried, and 40 μl of liquid scintillation cocktail (Microscint-O) was added to each well. Membrane-bound radioactivity was counted in a Microplate Scintillation and Luminescence Counter from Perkin Elmer.
The concentration-response curves of representative compounds of the present invention-obtained in the presence of EC20 of mGluR2 agonist glutamate to determine positive allosteric modulation (PAM)—were generated using the Lexis software interface (developed at J&J). Data were calculated as % of the control glutamate response, defined as the maximal response that is generated upon addition of glutamate alone. Sigmoid concentration-response curves plotting these percentages versus the log concentration of the test compound were analyzed using non-linear regression analysis. The concentration producing half-maximal effect is then calculated as EC50. The pEC50 values below were calculated as the −log EC50, when the EC50 is expressed in M. Emax is defined as relative maximal effect (i.e. maximal % effect relative to the control glutamate response).

[1] = maximal % effect relative to control glutamate response, read-out: GTPγS-hmGluR2 PAM Emax
[2] = read-out: GTPγS-hmGluR2 PAM Emax, maximal % effect relative to control glutamate response

T1 sequence (Q14416 19-872): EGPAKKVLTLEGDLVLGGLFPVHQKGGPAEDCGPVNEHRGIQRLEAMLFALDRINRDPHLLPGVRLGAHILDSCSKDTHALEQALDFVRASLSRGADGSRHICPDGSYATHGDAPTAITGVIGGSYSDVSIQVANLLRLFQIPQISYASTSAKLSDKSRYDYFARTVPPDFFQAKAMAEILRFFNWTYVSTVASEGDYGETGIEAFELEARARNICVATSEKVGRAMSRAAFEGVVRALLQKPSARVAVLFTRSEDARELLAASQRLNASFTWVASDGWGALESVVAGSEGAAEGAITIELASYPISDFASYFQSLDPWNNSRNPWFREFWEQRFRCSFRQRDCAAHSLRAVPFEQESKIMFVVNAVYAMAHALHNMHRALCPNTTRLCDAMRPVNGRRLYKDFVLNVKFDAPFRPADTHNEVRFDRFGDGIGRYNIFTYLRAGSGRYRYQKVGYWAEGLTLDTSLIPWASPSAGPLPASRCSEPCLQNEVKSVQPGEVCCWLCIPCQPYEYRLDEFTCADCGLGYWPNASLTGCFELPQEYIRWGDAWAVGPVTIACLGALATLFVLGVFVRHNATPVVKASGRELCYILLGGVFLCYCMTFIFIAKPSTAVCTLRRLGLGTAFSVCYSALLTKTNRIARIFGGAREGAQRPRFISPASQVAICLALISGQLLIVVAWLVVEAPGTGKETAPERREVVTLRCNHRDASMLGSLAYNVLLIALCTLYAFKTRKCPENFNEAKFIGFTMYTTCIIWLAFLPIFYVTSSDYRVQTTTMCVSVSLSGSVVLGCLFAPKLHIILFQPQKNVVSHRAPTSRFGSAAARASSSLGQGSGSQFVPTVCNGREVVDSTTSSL

| SMILES | EC50 [nM] | Emax [1] [%] | further results |
| --- | --- | --- | --- |
| CC(Oc1ccc(F)cc1)c1ccn2c(CC3CC3)nnc2c1C(F)(F)F (single isomer, unassigned) [Co. No. 3-b, 3-(Cyclopropylmethyl)-7-[(1*S)-1-(4-fluorophenoxy)ethyl]-8-(trifluoromethyl)[1,2,4]triazolo[4,3-a]pyridine] | – | – | GTPγS-hmGluR2 PAM Emax (maximal % effect relative to control glutamate response, listed as 3-b): 187% |
| CC(C)(O)c1ccc(C2CCN(c3ccn(CC4CC4)c(=O)c3C3CC3)CC2)cc1 [Co. No. 9-a] | 257 | 222 | – |
| FC(F)(F)c1c(N2CCN(c3ncccn3)CC2)ccn2c(CC3CC3)nnc12 [Co. No. 8] | 186 | 360 | – |
| CCOCc1nnc2c(C(F)(F)F)c(C(C)Oc3ccc(F)cc3F)ccn12 (single isomer, unassigned) [Co. No. 21-b, 7-[(1*S)-1-(2,4-Difluorophenoxy)ethyl]-3-(ethoxymethyl)-8-(trifluoromethyl)[1,2,4]triazolo[4,3-a]pyridine] | – | – | GTPγS-hmGluR2 PAM Emax (maximal % effect relative to control glutamate response, listed as 21-b): 102% |
| C[C@@H](Oc1ccc(F)cc1F)c1ccn2c(CC3CC3)nnc2c1C(F)(F)F [Co. No. 5-b, 3-(Cyclopropylmethyl)-7-[(1R)-1-(2,4-difluorophenoxy)ethyl]-8-(trifluoromethyl)[1,2,4]triazolo[4,3-a]pyridine] | – | 141 | – |
| C[C@H](Oc1c(F)cc(F)cc1F)c1ccn2c(CC3CC3)nnc2c1C(F)(F)F [Co. No. 15-b, 3-(Cyclopropylmethyl)-8-(trifluoromethyl)-7-[(1S)-1-(2,4,6-trifluorophenoxy)ethyl][1,2,4]triazolo[4,3-a]pyridine] | – | – | Emax [2]: 293% |
| C[C@H](Oc1c(F)cccc1F)c1ccn2c(CC3CC3)nnc2c1C(F)(F)F [Co. No. 11-b, 3-(Cyclopropylmethyl)-7-[(1S)-1-(2,6-difluorophenoxy)ethyl]-8-(trifluoromethyl)[1,2,4]triazolo[4,3-a]pyridine] | – | 239 | – |
| Fc1ccc(N2CCN(Cc3ccn4c(CC5CC5)nnc4c3Cl)CC2)c(F)c1 [Co. No. 5] | 550 | 231 | – |
| CC1(c2ccc(F)cc2)CCN(Cc2ccn3c(CC4CC4)nnc3c2C(F)(F)F)CC1 [Co. No. 3] | – | – | Emax [2]: 212% |
| Fc1ccc(C2CCN(c3ccn4c(CC5CC5)nnc4c3Cl)CC2)c(F)c1 [Co. No. 10] | – | 357 | – |
| COc1cc(F)ccc1O[C@@H](C)c1ccn2c(CC3CC3)nnc2c1C(F)(F)F [Co. No. 12-b, 3-(Cyclopropylmethyl)-7-[(1S)-1-(4-fluoro-2-methoxyphenoxy)ethyl]-8-(trifluoromethyl)[1,2,4]triazolo[4,3-a]pyridine] | – | 178 | – |
| CCCc1nnc2c(C(F)(F)F)c(C(C)Oc3ccc(F)cc3F)ccn12 (single isomer, unassigned) [Co. No. 32-b] | 1950 | – | GTPγS-hmGluR2 PAM Emax (maximal % effect relative to control glutamate response, listed as 32-b): 116% |
| CC1(C)OC2(CCN(c3ccn4c(CC5CC5)nnc4c3C(F)(F)F)CC2)c2ccc(F)cc21 [Co. No. 7] | – | 263 | – |
| CC(Oc1ccc(F)cc1F)c1ccn2c(CC3CC3)nnc2c1C(F)(F)F (stereo not shown) [Co. No. 4-b, 3-(Cyclopropylmethyl)-7-[1-(2,4-difluorophenoxy)ethyl]-8-(trifluoromethyl)[1,2,4]triazolo-[4,3-a]pyridine] | – | 329 | – |
| C[C@H](Oc1ccc(F)c(F)c1)c1ccn2c(CC3CC3)nnc2c1C(F)(F)F [Co. No. 8-b, 3-(Cyclopropylmethyl)-7-[(1S)-1-(3,4-difluorophenoxy)ethyl]-8-(trifluoromethyl)[1,2,4]triazolo[4,3-a]pyridine] | – | 244 | – |
| Fc1cnc(N2CCN(Cc3ccn4c(CC5CC5)nnc4c3C(F)(F)F)CC2)c(F)c1 [Co. No. 13] | 126 | 278 | – |
| Cc1ccc(O[C@@H](C)c2ccn3c(CC4CC4)nnc3c2C(F)(F)F)c(Cl)c1 [Co. No. 13-b, 7-[(1S)-1-(2-Chloro-4-methylphenoxy)ethyl]-3-(cyclopropylmethyl)-8-(trifluoromethyl)[1,2,4]triazolo[4,3-a]pyridine] | – | 280 | – |
| CCOCc1nnc2c(C(F)(F)F)c(C(C)Oc3c(F)cc(F)cc3F)ccn12 (single isomer, unassigned) [Co. No. 23-b, 3-(Ethoxymethyl)-8-(trifluoromethyl)-7-[(1*S)-1-(2,4,6-trifluorophenoxy)ethyl][1,2,4]triazolo[4,3-a]pyridine] | – | – | GTPγS-hmGluR2 PAM Emax (maximal % effect relative to control glutamate response, listed as 23-b): 167% |
| C[C@H](Oc1cccc(F)c1F)c1ccn2c(CC3CC3)nnc2c1C(F)(F)F [Co. No. 9-b, 3-(Cyclopropylmethyl)-7-[(1S)-1-(2,3-difluorophenoxy)ethyl]-8-(trifluoromethyl)[1,2,4]triazolo[4,3-a]pyridine] | – | 260 | – |
| CCOCc1nnc2c(C(F)(F)F)c(C(C)Oc3ccc(F)cc3F)ccn12 (single isomer, unassigned) [Co. No. 20-b, 7-[(1*R)-1-(2,4-Difluorophenoxy)ethyl]-3-(ethoxymethyl)-8-(trifluoromethyl)[1,2,4]triazolo[4,3-a]pyridine] | – | – | GTPγS-hmGluR2 PAM Emax (maximal % effect relative to control glutamate response, listed as 20-b): 332% |

Second part, led by results:

| EC50 [nM] | Emax [1] [%] | SMILES | further results |
| --- | --- | --- | --- |
| 288 | 261 | O=c1c(Cl)c(N2CCC(F)(c3ccccc3)CC2)ccn1CC1CC1 [Co. No. 17-a] | – |
| – | 231 | O=c1c(Br)c(N2CCC(c3ccccc3)CC2)ccn1CC1CC1 [Co. No. 3-a] | – |
| – | 157 | O=c1c(C2CC2)c(N2CCC(c3ccccc3)CC2)ccn1CC1CC1 [Co. No. 8-a] | – |
| 229 | 291 | CCCCn1ccc(N2CCC(F)(c3ccccc3)CC2)c(Cl)c1=O [Co. No. 7-a] | – |
| – | 207 | O=c1c(Cl)c(N2CCC(CF)(c3ccccc3)CC2)ccn1CC1CC1 [Co. No. 21-a] | – |
| 166 | 314 | O=c1c(Cl)c(N2CCC(c3ccccc3)CC2)ccn1CC1CC1 [Co. No. 1-a] | – |
| – | 249 | CCCCCn1ccc(N2CCC(c3ccccc3)CC2)c(Cl)c1=O [Co. No. 11-a] | GTPγS-hmGluR2 PAM pEC50: 7.11 |
| – | 242 | O=c1c(Cl)c(N2CCC(c3ccccc3F)CC2)ccn1CC1CC1 [Co. No. 12-a] | GTPγS-hmGluR2 PAM pEC50: 7.03 |
| 107 | 317 | CCCCn1ccc(N2CCC(c3ccc(C(C)(C)O)cc3F)CC2)c(Cl)c1=O [Co. No. 29-a] | – |
| 219 | 347 | CCCCn1ccc(N2CCC3(CC2)OCc2ccccc23)c(Cl)c1=O [Co. No. 32-a] | – |
| – | 243 | O=c1c(Cl)c(N2CCC(OCCF)(c3ccccc3)CC2)ccn1CC1CC1 [Co. No. 20-a] | – |
| – | 240 | CC(C)Cn1ccc(N2CCC(c3ccccc3)CC2)c(Cl)c1=O [Co. No. 19-a] | GTPγS-hmGluR2 PAM pEC50: 6.71 |
| – | 255 | N#CC1(c2ccccc2)CCN(c2ccn(CC3CC3)c(=O)c2Cl)CC1 [Co. No. 6-a] | – |
| – | 259 | CCCCn1ccc(N2CCC(CO)(c3ccccc3)CC2)c(Cl)c1=O [Co. No. 22-a] | – |
| 110 | 297 | CCCCn1ccc(N2CCC(c3ccccc3C(C)(C)O)CC2)c(Cl)c1=O [Co. No. 28-a] | – |
| – | 269 | O=c1c(C(F)(F)F)c(N2CCC(c3ccccc3)CC2)ccn1CC1CC1 [Co. No. 4-a] | GTPγS-hmGluR2 PAM pEC50: 6.6 |
| 263 | 362 | CCCCn1ccc(N2CCC3(CC2)COc2ccccc23)c(Cl)c1=O [Co. No. 33-a] | – |
| 316 | 248 | O=c1c(Cl)c(N2CCC(F)(c3ccccc3)CC2)ccn1CCC1CC1 [Co. No. 26-a] | – |

From patent US20250288584A1, “COMBINATIONS COMPRISING POSITIVE ALLOSTERIC MODULATORS OR ORTHOSTERIC AGONISTS OF METABOTROPIC GLUTAMATERGIC RECEPTOR SUBTYPE 2 AND THEIR USE” (JANSSEN PHARMACEUTICA NV, priority 2014, published 2025)
